Measured values as given in PubChem BioAssay AID248 (DTP/NCI, 2004).
Where “and” joins values, the source holds several entries; their conditions need not be identical. Equal values may be shown once. Toxic doses and inconclusive results are not listed. No stated cut-off is given here; in the data, active means T/C of 150% or more; inactive means T/C below 125%.

Test system: L1210 leukemia ip in BDF1 mice, survival T/C
Experiment: NCI In Vivo Anticancer Drug Screen. Data for tumor model L1210 Leukemia (intraperitoneal) in B6D2F1 (BDF1) mice
Details: endpoint: mean survival time, higher = longer survival
How it was run: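 Transplanted-tumor mice were given test agent; controls received vehicle only. Survival readings from the two groups were divided (treated over control).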

[1] = dose: 100.0 mg/kg/injection, schedule: Q01DX009 (ip), vehicle: saline with Tween-80
[2] = dose: 100.0 mg/kg/injection, schedule: Q01DX009 (ip), vehicle: Klucel (hydroxypropylcellulose) (HPC)
[3] = dose: 200.0 mg/kg/injection, schedule: Q01DX009 (ip), vehicle: Klucel (hydroxypropylcellulose) (HPC)
[4] = dose: 400.0 mg/kg/injection, schedule: Q01DX009 (ip), vehicle: Klucel (hydroxypropylcellulose) (HPC)

Measured: T/C

COc1cc(C=O)cc(Br)c1O
inactive: dose: 100.0 mg/kg/injection, schedule: Q04DX002 (ip), vehicle: saline with Tween-80 97 % of control | dose: 200.0 mg/kg/injection, schedule: Q04DX002 (ip), vehicle: saline with Tween-80 93 % of control | dose: 400.0 mg/kg/injection, schedule: Q04DX002 (ip), vehicle: saline with Tween-80 87 % of control

NC(CNC(=O)Oc1ccccc1)C(=O)O (centres undefined)
inactive: dose: 100.0 mg/kg/injection, schedule: Q01DX001 (ip), vehicle: saline with Tween-80 95 % of control | dose: 200.0 mg/kg/injection, schedule: Q01DX001 (ip), vehicle: saline with Tween-80 103 % of control | dose: 400.0 mg/kg/injection, schedule: Q01DX001 (ip), vehicle: saline with Tween-80 92 % of control

O=C(N/N=C\c1ccc(Cl)cc1Cl)c1ccc(F)cc1
inactive: dose: 25.0 mg/kg/injection, schedule: Q01DX009 (ip), vehicle: saline with Tween-80 96 % of control | dose: 50.0 mg/kg/injection, schedule: Q01DX009 (ip), vehicle: saline with Tween-80 94 % of control | [1] 92 % of control

O=C(O)CC(Sc1ccccc1)c1ccccc1 (centres undefined)
inactive: dose: 50.0 mg/kg/injection, schedule: Q01DX009 (ip), vehicle: Klucel (hydroxypropylcellulose) (HPC) 98 % of control | [2] 101 % of control | dose: 177.0 mg/kg/injection, schedule: Q04DX002 (ip), vehicle: saline 94 % of control | [3] 96 % of control | dose: 266.0 mg/kg/injection, schedule: Q04DX002 (ip), vehicle: saline 94 % of control | dose: 400.0 mg/kg/injection, schedule: Q04DX002 (ip), vehicle: saline 105 % of control | dose: 600.0 mg/kg/injection, schedule: Q04DX002 (ip), vehicle: saline 103 % of control

O=C(NC(=S)Nc1ccc(Cl)c(Cl)c1)c1cccc([N+](=O)[O-])c1
inactive: [2] 95 % of control | dose: 100.0 mg/kg/injection, schedule: Q04DX002 (ip), vehicle: Klucel (hydroxypropylcellulose) (HPC) 95 % of control and 97 % of control | dose: 100.0 mg/kg/injection, schedule: Q04DX003 (ip), vehicle: Klucel (hydroxypropylcellulose) (HPC) 93 % of control | [3] 95 % of control | dose: 200.0 mg/kg/injection, schedule: Q04DX002 (ip), vehicle: Klucel (hydroxypropylcellulose) (HPC) 93 % of control and 97 % of control | dose: 200.0 mg/kg/injection, schedule: Q04DX003 (ip), vehicle: Klucel (hydroxypropylcellulose) (HPC) 95 % of control | [4] 92 % of control and 94 % of control | dose: 400.0 mg/kg/injection, schedule: Q04DX002 (ip), vehicle: Klucel (hydroxypropylcellulose) (HPC) 95 % of control and 102 % of control | dose: 400.0 mg/kg/injection, schedule: Q04DX003 (ip), vehicle: Klucel (hydroxypropylcellulose) (HPC) 93 % of control

CCOC(=O)C(C(C)=O)C(c1ccc(OCc2ccccc2)c(C)c1)C(C(C)=O)C(=O)OCC (centres undefined)
inactive: dose: 100.0 mg/kg/injection, schedule: Q04DX003 (ip), vehicle: saline 94 % of control | dose: 200.0 mg/kg/injection, schedule: Q04DX003 (ip), vehicle: saline 94 % of control | dose: 400.0 mg/kg/injection, schedule: Q04DX003 (ip), vehicle: saline 95 % of control

CSc1cc(C(=O)O)nc(SC)n1
inactive: dose: 100.0 mg/kg/injection, schedule: Q01DX Z (ip), vehicle: methylcellulose (MC) 97 % of control

ON=c1c2ccccc2c2ccccc2c2ccccc12
inactive: dose: 75.0 mg/kg/injection, schedule: Q04DX002 (ip), vehicle: gum acacia 109 % of control | dose: 150.0 mg/kg/injection, schedule: Q04DX002 (ip), vehicle: gum acacia 105 % of control | dose: 300.0 mg/kg/injection, schedule: Q04DX002 (ip), vehicle: gum acacia 105 % of control

CNCCC=C1c2ccccc2CCc2ccccc21
inactive: dose: 3.12 mg/kg/injection, schedule: Q01DX009 (ip), vehicle: saline 101 % of control | dose: 6.25 mg/kg/injection, schedule: Q01DX009 (ip), vehicle: saline 101 % of control | dose: 12.5 mg/kg/injection, schedule: Q01DX009 (ip), vehicle: saline 106 % of control | dose: 25.0 mg/kg/injection, schedule: Q01DX009 (ip), vehicle: saline 106 % of control | dose: 25.0 mg/kg/injection, schedule: Q04DX003 (ip), vehicle: saline 96 % of control | dose: 50.0 mg/kg/injection, schedule: Q01DX009 (ip), vehicle: saline 117 % of control | dose: 50.0 mg/kg/injection, schedule: Q04DX003 (ip), vehicle: saline 96 % of control

CCC/C(=N/NC(=O)CNC(=O)c1ccccc1)c1ccccc1
inactive: [1] 100 % of control | dose: 200.0 mg/kg/injection, schedule: Q01DX009 (ip), vehicle: saline with Tween-80 96 % of control | dose: 400.0 mg/kg/injection, schedule: Q01DX009 (ip), vehicle: saline with Tween-80 92 % of control

Cc1ccc(S(=O)(=O)NN=C2CCCCC2)cc1
inactive: dose: 75.0 mg/kg/injection, schedule: Q01DX001 (ip), vehicle: saline 90 % of control | dose: 150.0 mg/kg/injection, schedule: Q01DX001 (ip), vehicle: saline 90 % of control | dose: 300.0 mg/kg/injection, schedule: Q01DX001 (ip), vehicle: saline 90 % of control

CC(C)=NNC(=O)C1CC=CC1C(Cl)Cl (centres undefined)
inactive: [2] 96 % of control | [3] 98 % of control | [4] 93 % of control

CCc1cc(S(=O)(=O)O)c(CC)c(CC)c1CC
inactive: [1] 97 % of control
